# According to patent US6369208B1, “Capped synthetic RNA, analogs, and aptamers” (Merck & Co., Inc., priority 1995, dated 2002):
# Assays:
# [1] = molecular target: T1, influenza endonuclease (Influenza A virus, UniProt P03428+P03433)
# [2] = molecular target: T1, influenza endonuclease; remark: listed apart in the source
# [3] = molecular target: T1, influenza endonuclease; remark: listed apart in the source
substance,measurement,setting,value
m^7GpppG(2′-OMe)UAUUAAUA(3′-dA)-3′ [SEQ.ID.NO.:3],inhibition of influenza endonuclease (in words),[1],potent inhibitor of influenza endonuclease
same,binding of the labeled capped 10-mer displaced by competition with unlabeled competitor,[2],95%
same,saturation amplitude,[2],5.2 nM
pppG(2′-OMe)UAUUAAUA(3′dA)-3′ [SEQ.ID.NO.:21],binding of the labeled capped 10-mer competed by unlabeled competitor,[2],10%
pppG(2′-OMe)UUUUUAUUUUUAAUUUUC-3′ [SEQ.ID.NO.:4],Km,[3],0.4 nM
same,site of cleavage by influenza endonuclease,[3],between the two A's at positions 13-14
